# Literature values as cited in patent US20230240327A1, “FUNCTIONAL SOYBEAN MEAL” (CAN TECHNOLOGIES, INC., priority 2020, published 2023).
# Read-outs that look alike come from different tables or passages of the source.
# Key:
# Bacteria = conditions: when in their dissociated form
# [1] = Table 7
# microorganisms = conditions: according to several studies; compared with antibiotics
smiles,measurement,setting,value
O=C(O)c1ccccc1 [Benzoic acid],Main effects,poultry; 0.20 wt% of feed,Positive influence on growth.
CCCC(=O)O [Butyric acid],Main effects,poultry; 0.15 wt% of feed (butyric acid),Maintain the beneficial micro flora
O=CO [Formic acid],Main effects,poultry; 0.50 - 1.00 wt% of feed (formic acid),Reduction of coecal pH and bactericidal effect on Salmonella.
same,bactericidal effect,Bacteria,bactericidal effect
O=C(O)/C=C/C(=O)O [Fumaric acid],Main effects,poultry; 0.50 - 1.00 wt% of feed (fumaric acid),Improvement in weight gain of broilers.
CC(O)C(=O)O (stereo not drawn) [Lactic acid],Main effects,poultry; 2.00 wt% of feed,Feed to gain ratio significantly improved. Body weight gain.
same,bactericidal effect,Bacteria,bactericidal effect
CCCCCCCCCCCC(=O)O [Lauric acid],pKa,[1],5.13
O=C(O)CC(O)C(=O)O (stereo not drawn) [Malic acid],Main effects,poultry; 0.50 - 2.00 wt% of feed,Increase in weight gain.
"CCC(=O)O [Propionic acid (buffered), Propionic acid]",Main effects,poultry; 0.15 - 0.20 wt% of feed (buffered propionic acid),Increase in dressing percentage in female broilers.
CCC(=O)O [Propionic acid],bactericidal effect,Bacteria,bactericidal effect
C/C=C/C=C/C(=O)O [Sorbic acid],Main effects,poultry; 1.12 wt% of feed,Improves feed efficiency.
same,bactericidal effect,Bacteria,bactericidal effect
O=C(O)C(O)C(O)C(=O)O (stereo not drawn) [Tartaric acid],Main effects,poultry; 0.33 wt% of feed,Improves weight gain.
Cc1ccc(C(C)C)cc1O [carvacrol],antimicrobial activity,microorganisms,stronger than in some antibiotics
C=CCc1ccc(O)c(OC)c1 [eugenol],antimicrobial activity,microorganisms,stronger than in some antibiotics
CC(C)=CCC/C(C)=C/CO [geraniol],antimicrobial activity,microorganisms,stronger than in some antibiotics
Cc1ccc(C(C)C)c(O)c1 [thymol],antimicrobial activity,microorganisms,stronger than in some antibiotics
